These results are taken from patent US20070142386A1, “New 2-substituted, 4-amino-thiazolo[4,5-d] pyrimidines, useful as chemokine receptor antagonists, esp. cx3cr1” (AstraZeneca, priority 2003, published 2007).

The structures appear in SMILES notation. Converted amounts (≈) assume the structure as drawn. Some results are limits rather than exact numbers.

Test system in one series: not listed separately
The series can be described thus: Solubility assay (0.1M phosphate buffer, pH 7.4, 24 hours). Conditions: 100 μM from DMSO stock in 0.1M phosphate buffer, pH 7.4, room temperature, upper limit 100 μM, LOQ 0.1 μM. It counts as physicochemical. The procedure: 100 μM Solutions in duplicate, prepared by dilution from a 10 mM DMSO stock solution of the test compound, were incubated in 0.1M phosphate buffer, pH 7.4, in a 96-well plate (PP plate, 350 μl U-shaped wells, COSTAR) on a plate bed shaker (IKA®-Schuttler MTS-4, IKA Labortechnik) at 300 rpm and room temperature (20-22° C.) for 24 hours.
The solutions were transferred to a MultiScreen™-R4 96-well filtration plate (LCR membrane, 0.4 μm hydrophilic PTFE, non-sterile glass-filled PP plate, 350 μl wells, Millipore) and filtered under vacuum to a 96-well collection plate (PP plate, 350 μl U-shaped wells, COSTAR), called the analyte plate, using Millipore Vacuum Manifold equipment. The analyte plate was covered by heat-sealing with an aluminium foil coated with a PP seal layer (AB-0813, pierceable sealing foil strong, ABgene).
LC-UV-MS analysis was performed using a generic LC method.
Single point quantification was performed against two 100 μM standards of the test compound dissolved in DMSO at the wavelength showing maximum UV absorbance as extracted from the DAD-trace (210-400 nm). The upper limit of the screen method is 100 μM with a LOQ of 0.1 μM.
With `CC(C)C[C@H](CO)N(C)c1nc([S+]([O-])CCc2ccccc2Br)nc2nc(N)sc12` (mixture of isomers) [Example 13, (R)-2-[(2-Amino-5-{[2-(2-bromophenyl)ethyl]-(RS,SS)-sulfinyl}[1,3]thiazolo[4,5-d]pyrimidin-7-yl)(methyl)amino]-4-methylpentan-1-ol], the solubility (usually how much of the substance goes into solution per volume) at 24 h came out at 33.8 µM (≈ 17.3 µg/mL).

Still in this series, the particulars now being: 21 °C, aqueous buffer, kinetic from dmso stock, 100 μM from DMSO stock in 0.1M phosphate buffer, pH 7.4, room temperature, upper limit 100 μM, LOQ 0.1 μM.
As to `CC(C)C[C@H](CO)Nc1nc(OCCc2ccccc2)nc2nc(N)sc12` [Example 3, (2R)-2-{[2-Amino-5-(2-phenylethoxy)[1,3]thiazolo[4,5-d]pyrimidin-7-yl]amino}-4-methylpentan-1-ol], the solubility at 24 h is 63.6 µM (≈ 24.6 µg/mL).
On the same count and under the same terms, as for `CC(C)C(CO)Nc1nc([S+]([O-])Cc2ccccc2)nc2[nH]c(=O)sc12` [Example 49, 5-[Benzyl-(RSSS)-sulfinyl]-7-{[(1R)-1-(hydroxymethyl)-2-methylpropyl]amino}[1,3]thiazolo[4,5-d]pyrimidin-2(3H)-one], the figure is above 100 µM; as for `CC(C)C[C@H](CO)Nc1nc(OCc2ccccc2)[nH]c2nc(=O)sc1-2` [Example 25, 5-(Benzyloxy)-7-{[(1R)-1-(hydroxymethyl)-3-methylbutyl]amino}[1,3]thiazolo[4,5-d]pyrimidin-2(3H)-one], 29 µM (≈ 10.9 µg/mL); as for `CC(C)C[C@H](CO)Nc1nc(SCc2cccc(F)c2F)nc2[nH]c(=O)cnc12` [drawing 17 X = S, 2-[(2,3-Difluorobenzyl)thio]-4-{[(1R)-1-(hydroxymethyl)-3-methylbutyl]amino}pteridin-7(8H)-one, reference compound], 1.3 µM (≈ 0.548 µg/mL).
On to `COc1cccc(COc2nc(N[C@@H](CO)CC(C)C)c3sc(=O)[nH]c3n2)c1` [Example 26, 7-{[(1R)-1-(Hydroxymethyl)-3-methylbutyl]amino}-5-[(3-methoxybenzyl)oxy][1,3]thiazolo[4,5-d]pyrimidin-2(3H)-one], for which the solubility at 24 h came out at 78.5 µM (≈ 31.8 µg/mL). This solubility at 24 h is about 60-fold higher than that of the compound before.
Same read-out and setting: as for `COc1cccc(COc2nc(N[C@@H](CO)CC(C)C)c3sc(N)nc3n2)c1` [Example 2, (2R)-2-({2-Amino-5-[(3-methoxybenzyl)oxy][1,3]thiazolo[4,5-d]pyrimidin-7-yl}amino)-4-methylpentan-1-ol], the figure is 72.9 µM (≈ 29.4 µg/mL).
On the same count and under the same terms, in the case of `CC(C)C[C@H](CO)Nc1nc(SCc2cccc(F)c2F)nc2[nH]c(=O)sc12` [drawing 20 X = S, 5-[(2,3-Difluorobenzyl)thio]-7-{[(1R)-1-(hydroxymethyl)-3-methylbutyl]amino}[1,3]thiazolo[4,5-d]pyrimidin-2(3H)-one, reference compound] it was 2.1 µM (≈ 0.896 µg/mL); in that of `CC(C)[C@H](CO)Nc1nc(SCc2ccccc2)nc2[nH]c(=O)sc12` [drawing 21 X = S, 5-(Benzylthio)-7-{[(1R)-1-(hydroxymethyl)-2-methylpropyl]amino}[1,3]thiazolo[4,5-d]pyrimidin-2(3H)-one, reference compound], 8.5 µM (≈ 3.2 µg/mL); in that of `CC(C)C[C@H](CO)Nc1nc([S+]([O-])Cc2cccc(F)c2F)nc2[nH]c(=O)sc12` (mixture of isomers) [Example 45, 5-[(2,3-Difluorobenzyl)-(RS,SS)-sulfinyl]-7-{[(1R)-1-(hydroxymethyl)-3-methylbutyl]amino}[1,3]thiazolo[4,5-d]pyrimidin-2(3H)-one], above 100 µM.
On the same count and under the same terms, in the case of `CC(C)C[C@H](CO)Nc1nc(SCc2ccccc2)nc2[nH]c(=O)sc12` [drawing 18 X = S, 5-(Benzylthio)-7-{[(1R)-1-(hydroxymethyl)-3-methylbutyl]amino}[1,3]thiazolo[4,5-d]pyrimidin-2(3H)-one, reference compound] it was 1.3 µM (≈ 0.508 µg/mL).
With `CC(C)CC(CO)Nc1nc([S+]([O-])Cc2cccc(F)c2F)nc2[nH]c(=O)cnc12` [Example 24, 2-[(2,3-Difluorobenzyl)-(RS,SS)-sulfinyl]-4-(1R)-1-(hydroxymethyl)-3-methylbutyl]amino}pteridin-7(8H)-one], the solubility at 24 h came to 44 µM (≈ 19.2 µg/mL).

The target of a further series is T1, human fractalkine receptor (hCX3CR1) (Homo sapiens, UniProt P49238).
T1 construct: expressed in transfected cells; host or cells: HEKS 293 (human embryonic kidney suspension) cells stably expressing the chimeric G-protein Gαqi5; Membranes were used in the assay
T1 sequence (P49238 1-355): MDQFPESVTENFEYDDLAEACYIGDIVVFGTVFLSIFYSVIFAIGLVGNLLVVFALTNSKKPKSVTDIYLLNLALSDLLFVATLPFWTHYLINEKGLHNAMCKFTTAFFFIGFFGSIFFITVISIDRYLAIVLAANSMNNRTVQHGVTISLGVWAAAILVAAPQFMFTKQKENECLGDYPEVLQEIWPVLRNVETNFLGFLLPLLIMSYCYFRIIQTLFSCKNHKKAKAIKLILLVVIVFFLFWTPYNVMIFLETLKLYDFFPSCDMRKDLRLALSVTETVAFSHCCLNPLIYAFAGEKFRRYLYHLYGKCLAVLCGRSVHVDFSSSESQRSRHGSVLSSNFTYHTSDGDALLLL
The series can be described thus: Ligand binding assay (competition binding with [125I]-fractalkine on cell membranes).
Conditions: not given
As for `CC(C)C[C@H](CO)Nc1nc(OCc2ccccc2)[nH]c2nc(=O)sc1-2` [Example 25, 5-(Benzyloxy)-7-{[(1R)-1-(hydroxymethyl)-3-methylbutyl]amino}[1,3]thiazolo[4,5-d]pyrimidin-2(3H)-one], affinity was put at a Ki of 44.6 nM.

Still in this series, the particulars now being: 10 pM [125I]-fractalkine, membranes of HEKS 293 cells expressing hCX3CR1, 25° C., 24 h; read-out: Ki.
Take `CC(C)C[C@H](CO)Nc1nc([S+]([O-])Cc2cccc(F)c2F)nc2[nH]c(=O)sc12` (mixture of isomers) [Example 45, 5-[(2,3-Difluorobenzyl)-(RS,SS)-sulfinyl]-7-{[(1R)-1-(hydroxymethyl)-3-methylbutyl]amino}[1,3]thiazolo[4,5-d]pyrimidin-2(3H)-one]: the inhibitory constant (Ki) (commonly a measure of affinity in units of concentration, obtained from inhibition or displacement) is 38 nM.
